Data taken from ChEMBL document CHEMBL3351754, “Rational use of plasma protein and tissue binding data in drug design” (J Med Chem, 2014).

Legend:
[1] = Fraction unbound in 100% human serum; type: ADME, cell-free
[2] = Fraction unbound in mouse brain

Row | Structure (SMILES) | fraction unbound [1] | fraction unbound [2]
1 | O=C(O)[C@H](Oc1cccc(C(F)(F)F)c1)c1ccc(Cl)cc1 [MBX-102 ACID FORM] | 0.009 | –
2 | CCCC(C)(COC(N)=O)COC(N)=O [MEPROBAMATE] | – | 0.76
